# Source: PubChem BioAssay AID2202555 (NIEHS Division of Translational Toxicology (DTT))
# Records with an inconclusive call do not appear. Active and inactive are the calls of the source. How the calls were made is not given here.
# System: rat and mouse 2-year carcinogenicity bioassay, tumor evidence
# Assay: Consolidated carcinogenicity assay summary data
# Details: Route (rodents): Dosed feed
# Description: Cancer Evaluation Criteria
# The National Toxicology Program describes the results of individual experiments on a chemical agent and notes the strength of the evidence for conclusions regarding each study. […] Other organizations, such as the International Agency for Research on Cancer, assign a strength of evidence for conclusions based on an examination of all available evidence, including animal studies such as those conducted by the NTP, epidemiologic studies, and estimates of exposure. Thus, the actual determination of risk to humans from chemicals found to be carcinogenic in laboratory animals requires a wider analysis that extends beyond the purview of these studies.
# Five categories of evidence of carcinogenic activity are used in the Technical Report series to summarize the strength of evidence observed in each experiment: two categories for positive results (clear evidence and some evidence); one category for uncertain findings (equivocal evidence); one category for no observable effects (no evidence); and one category for experiments that cannot be evaluated because of major flaws (inadequate study). These categories of interpretative conclusions were first adopted in June 1983 and then revised on March 1986 for use in the Technical Report series to incorporate more specifically the concept of actual weight of evidence of carcinogenic activity. For each separate experiment (male rats, female rats, male mice, female mice), one of the following five categories is selected to describe the findings. These categories refer to the strength of the experimental evidence and not to potency or mechanism.
# For studies showing multiple chemical-related neoplastic effects that if considered individually would be assigned to different levels of evidence categories, the following convention has been adopted to convey completely the study results. In a study with clear evidence of carcinogenic activity at some tissue sites, other responses that alone might be deemed some evidence are indicated as "were also related" to chemical exposure. In studies with clear or some evidence of carcinogenic activity, other responses that alone might be termed equivocal evidence are indicated as "may have been" related to chemical exposure.
# When a conclusion statement for a particular experiment is selected, consideration must be given to key factors that would extend the actual boundary of an individual category of evidence. Such consideration should allow for incorporation of scientific experience and current understanding of long-term carcinogenesis studies in laboratory animals, especially for those evaluations that may be on the borderline between two adjacent levels. These considerations should include:
# - adequacy of the experimental design and conduct;
# - occurrence of common versus uncommon neoplasia;
# - progression (or lack thereof) from benign to malignant neoplasia as well as from preneoplastic to neoplastic lesions;
# - some benign neoplasms have the capacity to regress but others (of the same morphologic type) progress. At present, it is impossible to identify the difference. Therefore, where progression is known to be a possibility, the most prudent course is to assume that benign neoplasms of those types have the potential to become malignant;
# - combining benign and malignant tumor incidences known or thought to represent stages of progression in the same organ or tissue;
# - latency in tumor induction;
# - multiplicity in site -specific neoplasia;
# - supporting information from proliferative lesions (hyperplasia) in the same site of neoplasia or in other experiments (same lesion in another sex or species);
# - presence or absence of dose relationships;
# - statistical significance of the observed tumor increase;
# - concurrent control tumor incidence as well as the historical control rate and variability for a specific neoplasm;
# - survival-adjusted analyses and false positive or false negative concerns;
# - structure-activity correlations; and
# […]
row,SMILES,carcinogen call
1,CN(C)C(=O)Nc1ccc(Cl)cc1,active; clear evidence
2,Nc1cc(Cl)cc(C(=O)O)c1Cl,active; no evidence
3,O=[N+]([O-])c1ccc2nc[nH]c2c1,active; no evidence
4,Cc1ccc(N=Nc2c(O)ccc3ccccc23)c([N+](=O)[O-])c1,active; some evidence
5,COc1ccccc1N,active; clear evidence
6,N#Cc1c(Cl)c(Cl)c(Cl)c(C#N)c1Cl,active; clear evidence
7,COC(=O)C(c1ccccc1)C1CCCCN1 (stereo not drawn),active; no evidence
8,O=c1c(O)c(-c2ccc(O)c(O)c2)oc2cc(O)cc(O)c12,active; some evidence
9,O=c1c(-c2ccc(O)cc2)coc2cc(O)cc(O)c12,active; no evidence
10,CCCCC(CC)COC(=O)c1ccccc1C(=O)OCC(CC)CCCC (stereo not drawn),active; clear evidence
11,Nc1cc(S(=O)(=O)O)cc2cc(S(=O)(=O)O)c(N=Nc3ccc(-c4ccc(N=Nc5c(S(=O)(=O)O)cc6cc(S(=O)(=O)O)cc(N)c6c5O)cc4)cc3)c(O)c12,active; clear evidence
12,c1ccc(N=Nc2ccccc2)cc1,active; clear evidence
13,Nc1c(Br)cc(Br)c2c1C(=O)c1ccccc1C2=O,active; clear evidence
14,Nc1cccc2c(N)cccc12,active; no evidence
15,O=P(OCC(Br)CBr)(OCC(Br)CBr)OCC(Br)CBr (stereo not drawn),active; clear evidence
16,CNc1ccc(N(CCO)CCO)cc1[N+](=O)[O-],active; equivocal evidence
17,Nc1ccccc1C(=O)OCC=Cc1ccccc1,active; clear evidence
18,CCCCCCCCS(=O)C(C)Cc1ccc2c(c1)OCO2 (stereo not drawn),active; no evidence
19,O=Nc1ccc(NO)cc1,active; no evidence
20,O=[N+]([O-])c1ccc2c3c(cccc13)CC2,active; clear evidence
21,CCNC(=S)NCC,active; clear evidence
22,Cc1cc(N=Nc2c(O)ccc3ccccc23)c(S(=O)(=O)O)cc1Cl,active; clear evidence

row,SMILES,carcinogen call
1,CCn1cc(C(=O)O)c(=O)c2ccc(C)nc21,active; clear evidence
2,Nc1ccc(N=Nc2ccccc2)c(N)n1,active; clear evidence
3,CN(C)NC(=O)CCC(=O)O,active; no evidence
4,O=C1c2ccccc2C(=O)c2ccccc21,active; some evidence
5,COC(=O)[C@H]1[C@H]2C[C@@H]3c4[nH]c5cc(OC)ccc5c4CCN3C[C@H]2C[C@@H](OC(=O)c2cc(OC)c(OC)c(OC)c2)[C@@H]1OC,active; clear evidence
6,Nc1ccc(N)c2c1C(=O)c1c(N)ccc(N)c1C2=O,active; clear evidence
7,O=C(O)C(F)(F)C(F)(F)C(F)(F)C(F)(F)C(F)(F)C(F)(F)C(F)(F)F,active; clear evidence
8,OCC(CO)(CBr)CBr,active; clear evidence
9,Cc1ccc([N+](=O)[O-])cc1N,active; no evidence
10,Cc1cc(C)c(N)cc1C,active; clear evidence
11,S=C1NCCN1,active; clear evidence
12,O=Nc1ccc(Nc2ccccc2)cc1,active; clear evidence
13,ClC1=C(Cl)C2(Cl)C3C(Cl)C=CC3C1(Cl)C2(Cl)Cl (stereo not drawn),active; no evidence
14,Cc1ccccc1N,active; clear evidence
15,CC(=O)Nc1ccc(N=Nc2cc(C)ccc2O)cc1,active; clear evidence
16,CN(C)c1ccc(C(=O)c2ccc(N(C)C)cc2)cc1,active; clear evidence
17,O=C1OC(c2ccc(O)cc2)(c2ccc(O)cc2)c2ccccc21,active; clear evidence
18,[O-]/[N+](=N\O)c1ccccc1,active; clear evidence
19,Cc1cccc(C)c1N,active; clear evidence
20,CCn1c2ccccc2c2cc(N)ccc21,active; clear evidence
21,Cc1cnc[nH]1,active; no evidence
22,Nc1ccc(S(=O)(=O)c2ccc(N)cc2)cc1,active; clear evidence

# Same assay, conditions: Route (rodents): Dosed water
row,SMILES,carcinogen call
1,[O]=[Cr](=[O])([OH])[O][Cr](=[O])(=[O])[OH],active; clear evidence
2,O=C(O)C(Cl)Br (stereo not drawn),active; clear evidence
3,C1COCCO1,active; clear evidence
4,c1ccncc1,active; some evidence
5,Cc1ccc(S(=O)(=O)Oc2ccc(N=Nc3ccc(-c4ccc(N=Nc5c(O)ccc6cc(S(=O)(=O)O)cc(S(=O)(=O)O)c56)c(C)c4)cc3C)cc2)cc1,active; clear evidence
6,COc1cc(-c2ccc(N)c(OC)c2)ccc1N,active; clear evidence
7,Cc1cc(-c2ccc(N)c(C)c2)ccc1N,active; clear evidence

# Same assay, conditions: Route (rodents): Gavage
row,SMILES,carcinogen call
1,CC(C)=C1CC[C@@H](C)CC1=O,active; no evidence
2,C=C(C)[C@H]1CC=C(C)CC1,active; clear evidence
3,COc1c2occc2cc2ccc(=O)oc12,active; clear evidence
4,O=C(O)c1cc(N=Nc2ccc(S(=O)(=O)Nc3ccccn3)cc2)ccc1O,active; some evidence
5,C=CC#N,active
6,BrC(Br)Br,active; some evidence
7,Nc1ccc([N+](=O)[O-])cc1O,active; some evidence
8,C=CC1CC=CCC1 (stereo not drawn),active; inadequate study
9,c1ccoc1,active; clear evidence
10,C=CC(=O)NCO,active; no evidence
11,COc1ccc(N)c(C)c1,active; clear evidence
12,CC(C)CCC[C@@H](C)[C@H]1CC[C@H]2[C@@H]3CC=C4C[C@@H](OC(=O)Cc5ccc(N(CCCl)CCCl)cc5)CC[C@]4(C)[C@H]3CC[C@]12C,active; no evidence
13,Oc1ccc(O)cc1,active; some evidence
14,CC1C(=O)C[C@]2(C(C)C)C[C@H]12 (stereo partly drawn),active; some evidence
15,C[C@]12CC[C@@H]3c4ccc(OC(=O)Cc5ccc(N(CCCl)CCCl)cc5)cc4CC[C@H]3[C@@H]1CC[C@@H]2OC(=O)Cc1ccc(N(CCCl)CCCl)cc1,active; no evidence

# Same assay, conditions: Route (rodents): Gavage; Second Route: Dosed Feed
row,SMILES,carcinogen call
1,COP(=O)(OC)OC=C(Cl)Cl,active; some evidence

# Same assay, conditions: Route (rodents): Gavage; Second Route: Topical
row,SMILES,carcinogen call
1,Clc1cc2c(cc1Cl)Oc1cc(Cl)c(Cl)cc1O2,active; clear evidence
2,S=[Se],active; clear evidence

# Same assay, conditions: Route (rodents): Inhalation
row,SMILES,carcinogen call
1,CCCBr,active; some evidence
2,C=CC(=C)Cl,active; clear evidence
3,ClCCl,active; some evidence
4,C=C(C)c1ccccc1,active; some evidence
5,OCc1ccco1,active; some evidence
6,C#CCO,active; some evidence
7,C=CC(=C)C,active; clear evidence
8,CC(C)c1ccccc1,active; clear evidence
9,CCCl,active; equivocal evidence
10,[O]=[Sb][O][Sb]=[O],active; some evidence
11,c1ccc2ccccc2c1,active; clear evidence
12,CC1CO1 (stereo not drawn),active; some evidence
13,C=C(C)C,active; some evidence

# Same assay, conditions: Route (rodents): Inhalation; Second Route: Gavage
row,SMILES,carcinogen call
1,ClCC(Br)CBr (stereo not drawn),active; clear evidence

# Same assay, conditions: Route (rodents): Interperitoneal
row,SMILES,carcinogen call
1,O=P1(NCCCl)OCCCN1CCCl (stereo not drawn),active; no evidence
2,CC(COc1ccccc1)N(CCCl)Cc1ccccc1 (stereo not drawn),active; clear evidence
3,COc1ccc(C(=O)/C(Br)=C\C(=O)O)cc1,active; clear evidence
4,Nc1nc(=S)c2ncn([C@H]3C[C@H](O)[C@@H](CO)O3)c2[nH]1,active; equivocal evidence
5,CC(CN1CC(=O)NC(=O)C1)N1CC(=O)NC(=O)C1 (stereo not drawn),active; no evidence

# Same assay, conditions: Route (rodents): Topical
row,SMILES,carcinogen call
1,OCCNCCO,active; no evidence
2,C1CC2OC2CC1C1CO1 (stereo not drawn),active; clear evidence
3,OCCN(CCO)CCO,active; equivocal evidence
4,Oc1cccc(O)c1O,active; no evidence
5,CCCCCCCCCCCC(=O)N(CCO)CCO,active; no evidence
